Source: article PMC6792352, “Limited Chemical Structural Diversity Found to Modulate Thyroid Hormone Receptor in the Tox21 Chemical Library” (Environmental Health Perspectives, 2019)
Counter-ions that a name gives are not always drawn. Like-named read-outs stand apart in the source and are kept apart here.

Tests used:
[1] = in vitro; conditions: rat, gh3-tre-luc cells, AC50 (uM) modified / 1000
[2] = tested on: GH3-TRE-Luc cell line; conditions: read-out: AC50 (uM) modified / 1000, viability, 1 nM T3 present, 24 h

Question: For `CCOC(=O)C1=C[C@]2(CC)CCCN3CCc4c(n1c1ccccc41)[C@@H]32` [Vinpocetine], which CC50 at 24 h [1] is on record?
Answer: 22.7 µM

Question: And the CC50 ([2]; Tox21_110001=Tox21_110839)?
Answer: 12 µM

Question: What does the source list for `CO/N=C1\C[C@]2(C[C@@H]3C[C@@H](C/C=C(\C)C[C@@H](C)/C=C/C=C4\CO[C@@H]5[C@H](O)C(C)=C[C@@H](C(=O)O3)[C@]45O)O2)O[C@H](/C(C)=C/C(C)C)[C@H]1C` [Moxidectin]?
Answer: CC50 at 24 h [1]: 5.14 µM; CC50 ([2]; Tox21_110001=Tox21_113093): 4.45 µM

Question: For `Cc1cc(Cc2cc(C)cc(C(C)(C)C)c2O)c(O)c(C(C)(C)C)c1` [2,2'-Methylenebis(4-methyl-6-tert-butylphenol)], which CC50 at 24 h [1] is on record?
Answer: 11.5 µM

Question: What about the CC50 ([2]; Tox21_110001=Tox21_302923) of the same molecule?
Answer: 10.1 µM

Question: For `CC(C)(C)CC(C)(C)c1ccc(O)c(-n2nc3ccccc3n2)c1` [Octrizole], which CC50 at 24 h [1] is on record?
Answer: 35.4 µM

Question: What about the CC50 ([2]; Tox21_110001=Tox21_112086) of the same molecule?
Answer: 21.6 µM

Question: And the CC50 ([2]; Tox21_110001=Tox21_300498)?
Answer: 32.7 µM

Question: For `CCCCN(CC)c1c([N+](=O)[O-])cc(C(F)(F)F)cc1[N+](=O)[O-]` [Benfluralin], which CC50 at 24 h [1] is on record?
Answer: > 90 µM

Question: And the CC50 ([2]; Tox21_110001=Tox21_300774)?
Answer: 46 µM

Question: What does the source list for `c1ccc(Nc2cccc3ccccc23)cc1` [N-Phenyl-1-naphthylamine]?
Answer: CC50 at 24 h [1]: 64.9 µM; CC50 ([2]; Tox21_110001=Tox21_303075): 61.1 µM

Question: What does the source list for `CNCCCC12CCC(c3ccccc31)c1ccccc12` [Maprotiline]?
Answer: CC50 at 24 h [1]: 6.11 µM; CC50 ([2]; Tox21_110001=Tox21_110200): 11.7 µM

Question: What does the source list for `CCCCCCCCCc1ccc(O)cc1` [4-Nonylphenol]?
Answer: CC50 at 24 h [1]: 41.5 µM; CC50 ([2]; Tox21_110001=Tox21_303647): 42.8 µM

Question: Which CC50 at 24 h [1] does the source give for `CC(C)CC(C)(c1ccc(O)cc1)c1ccc(O)cc1` [4,4'-(4-Methylpentane-2,2-diyl)diphenol] here?
Answer: 41.6 µM

Question: And the CC50 ([2]; Tox21_110001=Tox21_303608)?
Answer: 34 µM

Question: Which results are given for `c1cc(N(CC2CO2)CC2CO2)ccc1OCC1CO1` (stereo not drawn) [4-(Diglycidylamino)phenyl glycidyl ether]?
Answer: CC50 at 24 h [1]: 30.4 µM; CC50 ([2]; Tox21_110001=Tox21_302646): 25.4 µM

Question: What does the source list for `c1ccc(Nc2ccc3ccccc3c2)cc1` [N-Phenyl-2-naphthylamine]?
Answer: CC50 at 24 h [1]: 47.3 µM; CC50 ([2]; Tox21_110001=Tox21_302900): > 90 µM

Question: Which CC50 at 24 h [1] does the source give for `CC(C)(C)CC(C)(C)c1ccc(O)cc1` [4-(1,1,3,3-Tetramethylbutyl)phenol] here?
Answer: 35.1 µM

Question: And the CC50 ([2]; Tox21_110001=Tox21_112084)?
Answer: 22.4 µM

Question: Which results are given for `OCCN1CCN(CCCN2c3ccccc3C=Cc3ccccc32)CC1` [Opipramol dihydrochloride]?
Answer: CC50 at 24 h [1]: 6.78 µM; CC50 ([2]; Tox21_110001=Tox21_113153): 8.37 µM

Question: What does the source list for `CC/C(=C(/CC)c1ccc(O)cc1)c1ccc(O)cc1` [Diethylstilbestrol]?
Answer: CC50 at 24 h [1]: 55.5 µM; CC50 ([2]; Tox21_110001=Tox21_300526): 28.7 µM

Question: Which results are given for `CCNc1nc(NC(C)(C)C)nc(SC)n1` [Terbutryn]?
Answer: CC50 at 24 h [1]: > 90 µM; CC50 ([2]; Tox21_110001=Tox21_303141): 74.8 µM

Question: Which results are given for `CN1CCc2cccc3c2[C@H]1Cc1ccc(O)c(O)c1-3` [Apomorphine hydrochloride hydrate]?
Answer: CC50 at 24 h [1]: 48.2 µM; CC50 ([2]; Tox21_110001=Tox21_303480): 26.7 µM

Question: What does the source list for `CCN(CC)C(=O)c1cc(S(=O)(=O)Cc2ccccc2)c(N2CCC(c3ccccc3)CC2)cc1N(CC)CCN(C)C` [HMR1171 trifluoroacetate (1:1)]?
Answer: CC50 at 24 h [1]: 4.78 µM; CC50 ([2]; Tox21_110001=Tox21_113204): 3.38 µM

Question: With `Oc1ccc(C(c2ccc(O)cc2)C(Cl)(Cl)Cl)cc1` [2,2-Bis(4-hydroxyphenyl)-1,1,1-trichloroethane] as the molecule, how does the CC50 at 24 h [1] read?
Answer: 74.8 µM

Question: What about the CC50 ([2]; Tox21_110001=Tox21_300656) of the same molecule?
Answer: 55.1 µM

Question: Which results are given for `Cc1cc(C(C)(C)CC(C)(C)C)ccc1OCCOCC[N+](C)(C)Cc1ccccc1` [Methylbenzethonium chloride]?
Answer: CC50 at 24 h [1]: 9.38 µM; CC50 ([2]; Tox21_110001=Tox21_301446): 7.92 µM

Question: Which CC50 at 24 h [1] does the source give for `CC(=O)[C@H]1CC[C@H]2[C@@H]3CCC4=CC(=O)CC[C@]4(C)[C@H]3CC[C@]12C` [Progesterone] here?
Answer: 85.9 µM

Question: And the CC50 ([2]; Tox21_110001=Tox21_300307)?
Answer: 81.7 µM

Question: Which results are given for `COc1cc2c(cc1O)CCN[C@]21CS[C@@H]2c3c(OC(C)=O)c(C)c4c(c3[C@H](COC1=O)N1[C@@H]2[C@H]2c3c(cc(C)c(OC)c3O)C[C@@H]([C@@H]1O)N2C)OCO4` [Trabectedin]?
Answer: CC50 at 24 h [1]: 0.00433 µM; CC50 ([2]; Tox21_110001=Tox21_113236): 0.0049 µM

Question: Which results are given for `OCCOCCN1CCN(C(c2ccccc2)c2ccc(Cl)cc2)CC1` (stereo not drawn) [Hydroxyzine]?
Answer: CC50 at 24 h [1]: 18.1 µM; CC50 ([2]; Tox21_110001=Tox21_302563): 16.6 µM

Question: What does the source list for `O=c1cc(-c2ccc(O)cc2)oc2cc(O)cc(O)c12` [Apigenin]?
Answer: CC50 at 24 h [1]: 42.3 µM; CC50 ([2]; Tox21_110001=Tox21_302884): 77.9 µM

Question: Which CC50 at 24 h [1] does the source give for `CC(C)(C)C(=O)C1C(=O)c2ccccc2C1=O` [Pindone] here?
Answer: 60.9 µM

Question: What about the CC50 ([2]; Tox21_110001=Tox21_303317) of the same molecule?
Answer: 71.8 µM

Question: For `CCC(C)(c1ccc(O)cc1)c1ccc(O)cc1` [Bisphenol B], which CC50 at 24 h [1] is on record?
Answer: 78.3 µM

Question: And the CC50 ([2]; Tox21_110001=Tox21_300198)?
Answer: 88.4 µM

Question: What does the source list for `CC1(C)[C@@H](O)CC[C@]2(C)[C@H]3C(=O)C=C4[C@@H]5C[C@@](C)(C(=O)O)CC[C@]5(C)CC[C@@]4(C)[C@]3(C)CC[C@@H]12` [Glycyrrhetinic acid]?
Answer: CC50 at 24 h [1]: 28 µM; CC50 ([2]; Tox21_110001=Tox21_110804): 24.8 µM; CC50 ([2]; Tox21_110001=Tox21_112726): 19.8 µM

Question: Which results are given for `N=c1ccn2c(n1)O[C@H]1[C@H](O)[C@@H](CO)O[C@H]12` [Cyclocytidine]?
Answer: CC50 at 24 h [1]: 1.45 µM; CC50 ([2]; Tox21_110001=Tox21_111571): 1.18 µM

Question: What does the source list for `CC[C@@]1([C@@H]2O[C@@H]([C@H]3O[C@@](O)(CO)[C@H](C)C[C@@H]3C)C[C@@H]2C)CC[C@H]([C@]2(C)CC[C@]3(C[C@H](O)[C@@H](C)[C@@H]([C@@H](C)[C@@H](OC)[C@H](C)C(=O)O)O3)O2)O1` [Monensin sodium]?
Answer: CC50 at 24 h [1]: 0.446 µM; CC50 ([2]; Tox21_110001=Tox21_113191): 0.38 µM

Question: Which results are given for `CC(=O)OC/C=C(C)/C=C/C=C(C)/C=C/C1=C(C)CCCC1(C)C` [Retinol acetate]?
Answer: CC50 at 24 h [1]: > 50 µM; CC50 ([2]; Tox21_110001=Tox21_201423): 65.7 µM

Question: What does the source list for `CC[C@H](C)C(=O)O[C@H]1C[C@@H](C)C=C2C=C[C@H](C)[C@H](CC[C@@H]3C[C@@H](O)CC(=O)O3)[C@H]21` [Lovastatin]?
Answer: CC50 at 24 h [1]: 73.4 µM; CC50 ([2]; Tox21_110001=Tox21_110888): 43 µM; CC50 ([2]; Tox21_110001=Tox21_300268): 67 µM

Question: For `CCCCCC(=O)O[C@]1(C(C)=O)CC[C@H]2[C@@H]3CCC4=CC(=O)CC[C@]4(C)[C@H]3CC[C@@]21C` [Hydroxyprogesterone caproate], which CC50 at 24 h [1] is on record?
Answer: 17.9 µM

Question: And the CC50 ([2]; Tox21_110001=Tox21_302333)?
Answer: 26.2 µM

Question: With `O=[N+]([O-])c1ccc(Cl)c([N+](=O)[O-])c1` [1-Chloro-2,4-dinitrobenzene] as the molecule, how does the CC50 at 24 h [1] read?
Answer: 12.5 µM

Question: What about the CC50 ([2]; Tox21_110001=Tox21_302802) of the same molecule?
Answer: 10.1 µM

Question: What does the source list for `Oc1ccc(/C=C/c2cc(O)cc(O)c2)cc1` [Resveratrol]?
Answer: CC50 at 24 h [1]: 35 µM; CC50 ([2]; Tox21_110001=Tox21_303376): 36.1 µM

Question: With `Oc1ccccc1O` [Catechol] as the molecule, how does the CC50 at 24 h [1] read?
Answer: 33.7 µM

Question: What about the CC50 ([2]; Tox21_110001=Tox21_300153) of the same molecule?
Answer: 32.6 µM

Question: With `Cc1cc(O)c2c(c1)C(=O)c1cc(O)cc(O)c1C2=O` [Emodin] as the molecule, how does the CC50 at 24 h [1] read?
Answer: 29.1 µM

Question: What about the CC50 ([2]; Tox21_110001=Tox21_303218) of the same molecule?
Answer: 34.9 µM

Question: Which CC50 at 24 h [1] does the source give for `CCCN(CCOc1c(Cl)cc(Cl)cc1Cl)C(=O)n1ccnc1` [Prochloraz] here?
Answer: 81.4 µM

Question: And the CC50 ([2]; Tox21_110001=Tox21_301179)?
Answer: 70.8 µM
